Measurements as given in patent US11578056B2, “Solid forms comprising (S)-2-(2,6-dioxopiperidin-3-yl)-4-((2-fluoro-4-((3-morpholinoazetidin-1-yl)methyl)benzyl)amino)isoindoline-1,3-dione and salts thereof, and compositions comprising and methods of using the same” (Celgene Corporation, priority 2019, dated 2023).

Assays:
Assay in all cases: Hematological cell line viability/apoptosis flow cytometry assay
Type in all cases: cell-based
BL-41 cell line = settings: BL-41 (BL), 120 h
Description: (§1) Cell Proliferation and Viability Assay Using Hematological Cell Lines: The following exemplary anti-proliferative assay uses exemplary hematological cell lines in the following. The in vitro growth inhibitory activity of Compound 1 described herein was evaluated using a 384-well flow cytometry assay.
(§2) The cell lines were plated in 384-well flat bottom plates and assessed with increasing concentrations of compound ranging from 0.00015 to 10 μM or dimethyl sulfoxide (DMSO) control. The final concentration of DMSO was 0.1% (v/v). Following the addition of Compound 1 or DMSO and incubation for 120 hours, cell number and cell death were analyzed by flow cytometry (Attune®, Thermo Fisher) using Annexin V and the live-cell impermeant DNA dye, DRAQ7. Phosphatidylserine translocates from the inner layer to the outer layer of the cell membrane early in apoptosis and Annexin V binds to the exposed phosphatidylserine found on the surface of an apoptotic cell. The vital dye DRAQ7 is excluded by intact live cells and only stains cells that have died as a result of apoptosis or necrosis.
(§3) Flow cytometry data analysis was then performed using the Flow Jo_v10 software to determine the number of viable cells (Annexin V and DRAQ7 double negative staining cells) and percentage of apoptotic cells (Annexin V positive cells) for each condition. The live cell count for every concentration was normalized to the DMSO control (considered as 100%) to calculate the percentage of viable cells remaining after treatment and graphed using GraphPad Prism 7.03. The IC50 (50% inhibitory concentration) and Emax (maximum efficacy achieved) values were then calculated by performing nonlinear regression curve fitting using log(inhibitor) vs. normalized response—variable slope analysis on GraphPad Prism 7.03. Area under the curve (AUC) was calculated by performing area under curve analysis on GraphPad Prism 7.03. Similarly, for apoptosis analysis, the percentage of apoptosis combining both “early” (Annexin V positive and DRAQ7 negative) and “late” apoptosis (Annexin V and DRAQ7 positive) cell gates relative to DMSO was graphed using GraphPad Prism 7.03. The AUC, EC50 (concentration of compound that produces half-maximal apoptosis response) and Ymax (maximal percentage of apoptosis achieved) values from apoptosis curves were calculated by performing area under curve analysis and nonlinear regression curve fitting using log(agonist) vs. normalized response—Variable slope analysis on GraphPad Prism 7.03.
(§4) Dose-response proliferation curves for the panel of hematological cell lines and non-linear curve-fit regression were used to determine IC50, AUC, and Emax for % viable cells (Emax for viability varies between 100 at low doses and 0 at high doses, which corresponds to inhibition of all viable cells), and dose-response apoptosis curves were used to determine the EC50, AUC, and Ymax for % apoptosis (Ymax for apoptosis varies from 0 at low doses and 100 at higher doses which corresponds to death of all cells). Tumor cells were exposed to serial dilutions (0.00015 to 10 μM) of Compound 1 or dimethyl sulfoxide (DMSO) control for 5 days. Viability and apoptosis for all cell lines was determined by Annexin V/7-aminoactinomycin D (7-AAD) flow cytometry.

CII cell line = settings: CII (CLL), 120 h
Description: as §1, §2, §3, §4

Daudi cell line = settings: Daudi (BL), 120 h
Description: as §1, §2, §3, §4

EHEB cell line = settings: EHEB (CLL), 120 h
Description: as §1, §2, §3, §4

GDM-1 cell line = settings: GDM-1 (AML); 120 h
Description: as §1, §2, §3, §4

Mec1 cell line = settings: Mec1 (CLL), 120 h
Description: as §1, §2, §3, §4

OPM-2 cell line = settings: OPM-2 (MM), 120 h
Description: as §1, §2, §3, §4

RC-K8 cell line = settings: RC-K8 (DLBCL ABC); 120 h
Description: as §1, §2, §3, §4

STR428 cell line = settings: STR428 (DLBCL), 120 h
Description: as §1, §2, §3, §4

SU-DHL-8 cell line = settings: SU-DHL-8 (DLBCL GCB); 120 h
Description: as §1, §2, §3, §4

U-2932 cell line = settings: U-2932 (DLBCL ABC); 120 h
Description: as §1, §2, §3, §4

WILL-1 cell line = settings: WILL-1 (DLBCL); 120 h
Description: as §1, §2, §3, §4

WSU-DLCL cell line = settings: WSU-DLCL (DLBCL GCB), 120 h
Description: as §1, §2, §3, §4

[1] = Homo sapiens, read-out: % Viable Cells IC50

In the case of O=C1CC[C@H](N2C(=O)c3cccc(NCc4ccc(CN5CC(N6CCOCC6)C5)cc4F)c3C2=O)C(=O)N1 [Compound 1, (S)-2-(2,6-dioxopiperidin-3-yl)-4-((2-fluoro-4-((3-morpholinoazetidin-1-yl)methyl)benzyl)amino)isoindoline-1,3-dione], the “% Viable Cells AUC” value (BL-41 cell line) is reported as 270.2, the “% Viable Cells Emax” value (BL-41 cell line) is reported as 96.65% and the “Apoptosis AUC” value (BL-41 cell line) is reported as 288.2. The “Apoptosis Ymax” value (BL-41 cell line) was 79.5%, the EC50 (BL-41 cell line; Homo sapiens) was 6920 nM and the IC50 (BL-41 cell line; [1]) was 6060 nM. The “% Viable Cells AUC” value (CII cell line) was 926.1, the “% Viable Cells Emax” value (CII cell line) was 78.23% and the “Apoptosis AUC” value (CII cell line) was 238.1. The “Apoptosis Ymax” value (CII cell line) was 26.11%, the EC50 (CII cell line) was 145 nM and the IC50 (CII cell line; read-out: % Viable Cells IC50) was over 10000 nM. For the same compound, the “% Viable Cells AUC” value (Daudi cell line) was 196.4, the “% Viable Cells Emax” value (Daudi cell line) was 0% and the “Apoptosis AUC” value (Daudi cell line) was 274. For the same compound, the “Apoptosis Ymax” value (Daudi cell line) was 84.0%, the EC50 (Daudi cell line; Homo sapiens) was 2320 nM and the IC50 (Daudi cell line; [1]) was 0.6 nM. For the same compound, the “% Viable Cells AUC” value (EHEB cell line) was 319.3, the “% Viable Cells Emax” value (EHEB cell line) was 28.68% and the “Apoptosis AUC” value (EHEB cell line) was 65.03. For the same compound, the “Apoptosis Ymax” value (EHEB cell line) was 8.42%, the EC50 (EHEB cell line) was 506 nM and the IC50 (EHEB cell line; read-out: % Viable Cells IC50) was 30.3 nM. The “% Viable Cells AUC” value (GDM-1 cell line) was 1455, the “% Viable Cells Emax” value (GDM-1 cell line) was 388.4% and the “Apoptosis AUC” value (GDM-1 cell line) was 696.9. The “Apoptosis Ymax” value (GDM-1 cell line) was 265%, the EC50 (Mec1 cell line; Homo sapiens) was 210 nM and the IC50 (Mec1 cell line; [1]) was over 10000 nM. The “% Viable Cells AUC” value (Mec1 cell line) was 866.5, the “% Viable Cells Emax” value (Mec1 cell line) was 83.45% and the “Apoptosis AUC” value (Mec1 cell line) was 302.4. The “Apoptosis Ymax” value (Mec1 cell line) was 36.61%, the EC50 (OPM-2 cell line; Homo sapiens) was 1320 nM and the IC50 (OPM-2 cell line; [1]) was 0.3 nM. The “% Viable Cells AUC” value (OPM-2 cell line) was 210.5, the “% Viable Cells Emax” value (OPM-2 cell line) was 6.65% and the “Apoptosis AUC” value (OPM-2 cell line) was 212.6. For the same compound, the “Apoptosis Ymax” value (OPM-2 cell line) was 63.00%, the “% Viable Cells AUC” value (RC-K8 cell line) was 115.7 and the “% Viable Cells Emax” value (RC-K8 cell line) was 10.06%. For the same compound, the “Apoptosis AUC” value (RC-K8 cell line) was 349.2, the “Apoptosis Ymax” value (RC-K8 cell line) was 26.31% and the “% Viable Cells AUC” value (STR428 cell line) was 43.48. The “% Viable Cells Emax” value (STR428 cell line) was 1.227%, the “Apoptosis AUC” value (STR428 cell line) was 905.9 and the “Apoptosis Ymax” value (STR428 cell line) was 95.17%. For the same compound, the EC50 (STR428 cell line) was 102 nM, the IC50 (STR428 cell line; read-out: % Viable Cells IC50) was 94.7 nM and the “% Viable Cells AUC” value (SU-DHL-8 cell line) was 119.5. For the same compound, the “% Viable Cells Emax” value (SU-DHL-8 cell line) was 2.081%, the “Apoptosis AUC” value (SU-DHL-8 cell line) was 363.2 and the “Apoptosis Ymax” value (SU-DHL-8 cell line) was 85.44%. For the same compound, the “% Viable Cells AUC” value (U-2932 cell line) was 163.7, the “% Viable Cells Emax” value (U-2932 cell line) was 12.8% and the “Apoptosis AUC” value (U-2932 cell line) was 212.8. For the same compound, the “Apoptosis Ymax” value (U-2932 cell line) was 25.81%, the “% Viable Cells AUC” value (WILL-1 cell line) was 233.7 and the “% Viable Cells Emax” value (WILL-1 cell line) was 4.216%. The “Apoptosis AUC” value (WILL-1 cell line) was 549.4, the “Apoptosis Ymax” value (WILL-1 cell line) was 79.51% and the “% Viable Cells AUC” value (WSU-DLCL cell line) was 341.9. For the same compound, the “% Viable Cells Emax” value (WSU-DLCL cell line) was 27.83%, the “Apoptosis AUC” value (WSU-DLCL cell line) was 565.1 and the “Apoptosis Ymax” value (WSU-DLCL cell line) was 59.91%. For the same compound, the EC50 (WSU-DLCL cell line) was 18 nM and the IC50 (WSU-DLCL cell line; read-out: % Viable Cells IC50) was 142 nM.
